Reference: patent US5721103A, “Trienoic retinoid compounds and methods” (Ligand Pharmaceuticals Incorporated, priority 1995, dated 1998)
Values belong to the compound of their own block, whether it stands above or below them.

What was measured:
[1] = tested on: ornithine decarboxylase (ODC); assay: Ornithine decarboxylase assay, inhibition of TPA induction of ODC; format: cell-based; conditions: esters of Compounds 9 and 10
RARγ = target: T1, RARγ (Homo sapiens, UniProt P13631); assay: Co-transfection assay, RARγ agonist activity; format: cell-based
T1 construct: expressed in transfected cells; host or cells: CV-1 (African green monkey kidney)
T1 sequence (P13631 1-454): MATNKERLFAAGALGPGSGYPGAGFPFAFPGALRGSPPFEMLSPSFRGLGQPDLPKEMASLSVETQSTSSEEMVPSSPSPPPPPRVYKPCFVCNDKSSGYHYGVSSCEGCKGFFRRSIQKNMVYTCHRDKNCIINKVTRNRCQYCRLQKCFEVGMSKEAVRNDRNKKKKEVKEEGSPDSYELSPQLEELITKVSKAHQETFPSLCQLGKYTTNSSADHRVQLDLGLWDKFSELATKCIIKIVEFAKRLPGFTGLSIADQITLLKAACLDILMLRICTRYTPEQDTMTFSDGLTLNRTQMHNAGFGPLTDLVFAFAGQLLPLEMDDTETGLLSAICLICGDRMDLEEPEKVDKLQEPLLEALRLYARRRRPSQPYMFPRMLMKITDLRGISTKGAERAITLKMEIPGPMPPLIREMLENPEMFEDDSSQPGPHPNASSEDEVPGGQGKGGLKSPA

RARs and RXRs = assay: Co-transfection assay, RAR and RXR receptors taken together; format: cell-based
Procedure: Utilizing the "cis-trans" or "co-transfection" assay described by Evans et al., Science, 240:889-95 (May 13, 1988), the disclosure of which is herein incorporated by reference, the retinoid compounds of the present invention were tested and found to have strong, specific activity as either selective RAR agonists, selective RXR agonists, or as pan-agonist activators of both RAR and RXR receptors. This assay is described in further detail in U.S. Pat. Nos. 4,981,784 and 5,071,773, the disclosures of which are incorporated herein by reference.
In the co-transfection assay, a cloned cDNA for an IR (e.g., human RARα, RARβ, RXRγ) under the control of a constitutive promoter (e.g., the SV 40 promoter) is introduced by transfection (a procedure to induce cells to take up foreign genes) into a background cell substantially devoid of endogenous IRs. This introduced gene directs the recipient cells to make the IR protein of interest. A second gene is also introduced (co-transfected) into the same cells in conjunction with the IR gene. This second gene, comprising the cDNA for a reporter protein, such as firefly luciferase (LUC), is controlled by an appropriate hormone responsive promoter containing a hormone response element (HRE). This reporter plasmid functions as a reporter for the transcription-modulating activity of the target IR. Thus, the reporter acts as a surrogate for the products (mRNA then protein) normally expressed by a gene under control of the target receptor and its native hormone.
The co-transfection assay can detect small molecule agonists or antagonists of target IRs. Exposing the transfected cells to an agonist ligand compound increases reporter activity in the transfected cells. This activity can be conveniently measured, e.g., by increasing luciferase production, which reflects compound-dependent, IR-mediated increases in reporter transcription. […] . Increasing concentrations of a suspected antagonist will decrease the reporter signal (e.g., luciferase production). The co-transfection assay is therefore useful to detect both agonists and antagonists of specific IRs. Furthermore, it determines not only whether a compound interacts with a particular IR, but whether this interaction mimics (agonizes) or blocks (antagonizes) the effects of the native regulatory molecules on target gene expression, as well as the specificity and strength of this interaction.
To determine RAR and/or RXR agonist activity of the compounds of the present invention, the CV-1 cells were transiently transfected by calcium phosphate coprecipitation according to the procedure of Berger et al., 41 J. Steroid Biochem. Mol. Biol., 733 (1992) with the following receptor expressing plasmids: pRShRARα: Giguere et at., 330 Nature, 624 (1987); pRShRARβ and pRShRARγ, Ishikawa et al., 4 Mol. Endocrin., 837 (1990); pRShRXRα, Mangelsdorf et at., 345 Nature, 224 (1990); and pRSmRXRβ and pRSmRXRγ, Mangelsdorf et al., 6 Genes & Devel., 329 (1992), the disclosures of which are herein incorporated by reference. Each of these receptor expressing plasmids was co-transfected at a concentration of 5 ng/well, along with a basal reporter plasmid at 100 ng/well, the internal control plasmid pRS-β-Gal at 50 ng/well and filler DNA, pGEM at 45 ng/well.

RAR and RXR receptors = assay: Binding to the retinoid receptors taken together; conditions: RARs and RXRs; compounds 9 and 10 versus ATRA and 9-cis
RARα = target: T2, RARα (Homo sapiens, UniProt P10276); assay: Co-transfection assay, RARα agonist activity; format: cell-based; conditions: CV-1 cells, 40 hours, read-out: Potency (EC50) RARα
T2 construct: expressed in transfected cells; host or cells: CV-1 (African green monkey kidney)
T2 sequence (P10276 1-462): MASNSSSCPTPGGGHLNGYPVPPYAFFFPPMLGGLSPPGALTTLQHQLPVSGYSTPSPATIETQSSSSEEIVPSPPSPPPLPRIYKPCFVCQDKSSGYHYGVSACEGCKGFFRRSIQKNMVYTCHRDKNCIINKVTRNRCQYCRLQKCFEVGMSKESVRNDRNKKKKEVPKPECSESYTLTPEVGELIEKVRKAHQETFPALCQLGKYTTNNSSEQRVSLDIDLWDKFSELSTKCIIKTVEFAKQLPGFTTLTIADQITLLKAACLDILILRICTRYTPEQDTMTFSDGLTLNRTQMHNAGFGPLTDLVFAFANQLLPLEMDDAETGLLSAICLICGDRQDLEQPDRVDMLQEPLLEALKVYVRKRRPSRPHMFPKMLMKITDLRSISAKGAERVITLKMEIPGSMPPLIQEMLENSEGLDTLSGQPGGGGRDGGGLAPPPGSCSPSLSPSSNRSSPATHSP

RARβ = target: T3, RARβ (Homo sapiens, UniProt P10826); assay: Co-transfection assay, RARβ agonist activity; format: cell-based; conditions: CV-1 cells, 40 hours, read-out: Potency (EC50) RARβ
T3 construct: expressed in transfected cells; host or cells: CV-1 (African green monkey kidney)
T3 sequence (P10826 1-448 isoform P10826-2): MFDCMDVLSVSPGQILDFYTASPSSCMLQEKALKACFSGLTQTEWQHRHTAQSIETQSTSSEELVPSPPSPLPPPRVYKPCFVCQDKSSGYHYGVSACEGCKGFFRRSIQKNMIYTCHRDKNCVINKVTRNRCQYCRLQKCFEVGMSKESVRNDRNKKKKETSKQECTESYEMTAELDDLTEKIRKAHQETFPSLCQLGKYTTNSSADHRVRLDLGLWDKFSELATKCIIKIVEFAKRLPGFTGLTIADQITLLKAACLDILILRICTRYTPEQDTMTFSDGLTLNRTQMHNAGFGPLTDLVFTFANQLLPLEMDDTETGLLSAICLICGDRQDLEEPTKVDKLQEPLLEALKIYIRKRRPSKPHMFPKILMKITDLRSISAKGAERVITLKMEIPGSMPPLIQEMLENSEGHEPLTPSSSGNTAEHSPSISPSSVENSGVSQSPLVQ

RXRα = target: T4, RXRα (Homo sapiens, UniProt P19793); assay: Co-transfection assay, RXRα agonist activity; format: cell-based; conditions: CV-1 cells, 40 hours, read-out: Potency (EC50) RXRα
T4 construct: expressed in transfected cells; host or cells: CV-1 (African green monkey kidney)
T4 sequence (P19793 1-462): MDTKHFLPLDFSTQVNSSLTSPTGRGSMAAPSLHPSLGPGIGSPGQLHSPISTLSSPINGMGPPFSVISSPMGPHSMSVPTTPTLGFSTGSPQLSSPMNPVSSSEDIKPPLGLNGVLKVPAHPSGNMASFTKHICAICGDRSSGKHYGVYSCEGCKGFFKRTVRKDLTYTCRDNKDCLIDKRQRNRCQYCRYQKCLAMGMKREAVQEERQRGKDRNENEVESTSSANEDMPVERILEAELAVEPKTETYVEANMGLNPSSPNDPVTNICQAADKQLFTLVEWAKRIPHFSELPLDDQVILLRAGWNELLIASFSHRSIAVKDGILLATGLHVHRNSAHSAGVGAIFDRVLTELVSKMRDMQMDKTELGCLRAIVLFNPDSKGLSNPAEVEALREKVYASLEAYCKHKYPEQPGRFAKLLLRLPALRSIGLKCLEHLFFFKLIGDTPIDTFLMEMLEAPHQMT

RXRβ = target: T5, RXRβ (Mus musculus, UniProt P28704); assay: Co-transfection assay, RXRβ agonist activity; format: cell-based; conditions: CV-1 cells, 40 hours, read-out: Potency (EC50) RXRβ
T5 construct: expressed in transfected cells; host or cells: CV-1 (African green monkey kidney)
T5 sequence (P28704 1-520): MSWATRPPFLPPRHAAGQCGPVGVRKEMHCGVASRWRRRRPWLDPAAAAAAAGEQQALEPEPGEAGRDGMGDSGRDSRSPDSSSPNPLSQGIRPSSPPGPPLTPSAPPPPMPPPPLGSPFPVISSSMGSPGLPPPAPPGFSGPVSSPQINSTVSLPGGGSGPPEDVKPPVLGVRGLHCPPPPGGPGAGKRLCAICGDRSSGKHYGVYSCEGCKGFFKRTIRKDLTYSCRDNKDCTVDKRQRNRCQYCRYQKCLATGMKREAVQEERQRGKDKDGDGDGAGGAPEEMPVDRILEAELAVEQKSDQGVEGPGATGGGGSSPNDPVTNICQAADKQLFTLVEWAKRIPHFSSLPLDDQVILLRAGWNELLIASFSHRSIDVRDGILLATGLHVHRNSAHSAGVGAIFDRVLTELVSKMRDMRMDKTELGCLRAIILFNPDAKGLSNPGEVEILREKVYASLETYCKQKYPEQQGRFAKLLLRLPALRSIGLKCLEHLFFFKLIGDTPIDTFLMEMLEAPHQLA

RXRγ = target: T6, RXRγ (Mus musculus, UniProt P28705); assay: Co-transfection assay, RXRγ agonist activity; format: cell-based; conditions: CV-1 cells, 40 hours, read-out: Potency (EC50) RXRγ
T6 construct: expressed in transfected cells; host or cells: CV-1 (African green monkey kidney)
T6 sequence (P28705 1-463): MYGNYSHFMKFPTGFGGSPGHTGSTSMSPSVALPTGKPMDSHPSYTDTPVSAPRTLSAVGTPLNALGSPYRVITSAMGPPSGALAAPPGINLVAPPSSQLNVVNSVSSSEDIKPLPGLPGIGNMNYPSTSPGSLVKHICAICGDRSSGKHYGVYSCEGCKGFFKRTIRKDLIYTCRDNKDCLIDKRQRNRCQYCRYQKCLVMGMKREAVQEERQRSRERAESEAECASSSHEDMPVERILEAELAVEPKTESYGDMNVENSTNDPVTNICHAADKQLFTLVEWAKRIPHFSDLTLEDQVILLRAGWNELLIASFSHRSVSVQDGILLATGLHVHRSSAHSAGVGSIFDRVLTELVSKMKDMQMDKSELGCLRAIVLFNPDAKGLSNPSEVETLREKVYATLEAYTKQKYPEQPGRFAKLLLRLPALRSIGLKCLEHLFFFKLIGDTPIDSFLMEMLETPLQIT

SMILES: CCOC(=O)/C=C(C)/C=C/C=C(/C)c1cc(C(C)(C)C)cc(C(C)(C)C)c1 [Compound 8, Ethyl (2E, 4E, 6Z)-7-(3,5-di-t-butylphenyl)-3-methylocta-2,4,6-trienoate]
retinoid activity of ester analogs (in words) [1]: exhibit retinoid activity

SMILES: CCOC(=O)/C=C(C)/C=C/C=C(\C)c1cc(C(C)(C)C)cc(C(C)(C)C)c1 [Compound 7, Ethyl (2E, 4E, 6E)-7-(3,5-di-t-butylphenyl)-3-methylocta-2,4,6-trienoate]
retinoid activity of ester analogs (in words) [1]: exhibit retinoid activity

SMILES: CCc1cc(C)c(\C(C)=C/C=C/C(C)=C/C(=O)O)cc1CC [Compound 54]
EC50 (RARα): > 10000 nM | EC50 (RARβ): 130 nM | EC50 (RARγ; CV-1 cells, 40 hours, read-out: Potency (EC50) RARγ): 320 nM | EC50 (RXRα): 58 nM | EC50 (RXRβ): 28 nM | EC50 (RXRγ): 78 nM

Further lines, results first:

activity on RARγ (in words) (RARγ): sub-nanomolar activity on RARγ | RAR activity (in words) (RARs and RXRs; RARs): extremely potent RAR active compounds | binding on the retinoid receptors (in words) (RAR and RXR receptors): equal or superior binding
SMILES: CC(/C=C/C=C(\C)c1cc(C(C)(C)C)cc(C(C)(C)C)c1)=C\C(=O)O [Compound 9, (2E, 4E, 6E)-7-(3,5-Di-t-butylphenyl)-3-methylocta-2,4,6-trienoic acid]

potency profile in comparison to 9-cis retinoic acid (in words) (RARs and RXRs; versus 9-cis, pan-agonist): superior potency profile | binding on the retinoid receptors (in words) (RAR and RXR receptors): equal or superior binding
SMILES: C/C(=C/C=C/C(C)=C/C(=O)O)c1cc(C(C)(C)C)cc(C(C)(C)C)c1 [Compound 10, (2E, 4E, 6Z)-7-(3,5-Di-t-butylphenyl)-3-methylocta-2,4,6-trienoic acid]
